# Several values for one entry are separate records, joined by “and”; a condition that tells them apart may be missing. Identical values can stand only once.
# Columns and labels:
# [1] = Biodistribution studies of 11C tracers; format: in vivo, Wistar rats; conditions: for SUV Blood / SUV Cerebellum / SUV Cerebrum total / SUV Cortex / SUV Hippocampus / SUV Striatum: normalized for body weight
# Method: Biodistribution studies were carried out in healthy male Wistar rats (body weight 200-450 g) at 2 min, 30 min and 60 min post injection (p.i.) (n=3/time point). Rats were injected with about 11 MBq (2 min, 30 min analysis) or 22 MBq (60 min analysis) of the tracer via tail vein under anesthesia (2.5% isoflurane in O2 at 1 L/min flow rate) and sacrificed by decapitation at above specified time points. Blood and major organs were collected in tared tubes and weighed. The radioactivity in blood, organs and other body parts was measured using an automated gamma counter. The distribution of radioactivity in different parts of the body at different time points p.i. of the tracer was calculated and expressed as percentage of injected dose (% ID), and as percentage of injected dose per gram tissue (% ID/g) for the selected organs. % ID is calculated as cpm in organ/total cpm recovered. For calculation of total radioactivity in blood, blood mass was assumed to be 7% of the body mass.
# mGluR2 = molecular target: T1, mGluR2 (Rattus norvegicus, UniProt P31421); experiment: MicroPET imaging: baseline, blocking and chase experiments; format: in vivo, Wistar rats
# T1 construct: from tissue; host or cells: brain of living male Wistar rats (in vivo microPET)
# Method: Imaging experiments were performed on a Focus™ 220 microPET scanner (Concorde Microsystems, Knoxyille, Tenn., USA) using healthy male Wistar rats. During all scan sessions, animals were kept under gas anesthesia (2.5% isoflurane in O2 at 1 L/min flow rate).
# Dynamic scans of 90 min were acquired. After reconstruction of the images (filtered back projection), they were spatially normalized to an in-house created [^11C]raclopride template of the rat brain in Paxinos coordinates. Automated and symmetric volumes of interest (VOIs) were generated for different brain regions (striatum, cortex, cerebellum, hippocampus, hypothalamus, thalamus, substantia nigra, nucleus accumbens and lateral globus pallidus) from which time-activity curves (TAC) were constructed for each individual scan, using PMOD software (v 3.1, PMOD Technologies Ltd.). The radioactivity concentration in the different brain regions was expressed as SUV as a function of time p.i. of the radiotracer by normalization for body weight of the animal and injected dose.
# Rats were injected with 30-60 MBq of high specific activity formulation of [^11C]B-4, [^11C]B-2, [^11C]B-7, or [^11C]B-10 via the tail vein under isoflurane anesthesia (2.5% in O2 at 1 L/min flow rate).
# For pretreatment and displacement experiments, compound A, compound B or ritanserin were dissolved and administered in a vehicle containing 20% (2-hydroxypropyl)-β-cyclodextrine and two equivalents hydrochloric acid. The ritanserin solution was protected from light.
# A self-blocking study was done by subcutaneous (s.c.) administration of the authentic reference material (for [^11C]B-4) at ˜30 min prior to the radiotracer injection. Displacement studies were performed by i.v. injection of compound B at dose 4, 1, 0.3 and 0.1 mg/kg, compound A at dose 1 mg/kg or ritanserin at dose 0.3 mg/kg. All chase compounds were injected ˜30 min after radiotracer injection. A wash-out period of at least four days was maintained between the different pretreatment and displacement studies.
# [^11C]B-4 was evaluated in vivo in three rats which were scanned dynamically for 90 min using μPET. The first rat was used for a baseline scan. The second rat was pretreated with authentic reference material B-4 via s.c. administration (dose 10 mg/kg) at 30 min prior to tracer injection. The third rat was used in a chase experiment and was injected i.v. with authentic reference material B-4 (dose 3 mg/kg) 30 min after tracer injection.
# Two rats were injected with high specific activity tracer ([^11C]B-4, [^11C]B-2, [^11C]B-7, or [^11C]B-10) and scanned dynamically for 90 min. The first rat was scanned baseline, the second rat was injected i.v. with compound B (dose 4 mg/kg) 30 min after tracer injection. Table 16 gives an overview of the maximum and minimum SUV values in the chase experiment for the four studied tracers.
# A chase experiment was performed for [^11C]B-2 with different doses of compound B (4, 1, 0.3, 0.1 mg/kg). The chase compound was injected i.v. 30 min after tracer injection. Table 17 gives an overview of the average SUV values before and after injection of the chase for the total brain.
# T1 sequence (P31421 19-872): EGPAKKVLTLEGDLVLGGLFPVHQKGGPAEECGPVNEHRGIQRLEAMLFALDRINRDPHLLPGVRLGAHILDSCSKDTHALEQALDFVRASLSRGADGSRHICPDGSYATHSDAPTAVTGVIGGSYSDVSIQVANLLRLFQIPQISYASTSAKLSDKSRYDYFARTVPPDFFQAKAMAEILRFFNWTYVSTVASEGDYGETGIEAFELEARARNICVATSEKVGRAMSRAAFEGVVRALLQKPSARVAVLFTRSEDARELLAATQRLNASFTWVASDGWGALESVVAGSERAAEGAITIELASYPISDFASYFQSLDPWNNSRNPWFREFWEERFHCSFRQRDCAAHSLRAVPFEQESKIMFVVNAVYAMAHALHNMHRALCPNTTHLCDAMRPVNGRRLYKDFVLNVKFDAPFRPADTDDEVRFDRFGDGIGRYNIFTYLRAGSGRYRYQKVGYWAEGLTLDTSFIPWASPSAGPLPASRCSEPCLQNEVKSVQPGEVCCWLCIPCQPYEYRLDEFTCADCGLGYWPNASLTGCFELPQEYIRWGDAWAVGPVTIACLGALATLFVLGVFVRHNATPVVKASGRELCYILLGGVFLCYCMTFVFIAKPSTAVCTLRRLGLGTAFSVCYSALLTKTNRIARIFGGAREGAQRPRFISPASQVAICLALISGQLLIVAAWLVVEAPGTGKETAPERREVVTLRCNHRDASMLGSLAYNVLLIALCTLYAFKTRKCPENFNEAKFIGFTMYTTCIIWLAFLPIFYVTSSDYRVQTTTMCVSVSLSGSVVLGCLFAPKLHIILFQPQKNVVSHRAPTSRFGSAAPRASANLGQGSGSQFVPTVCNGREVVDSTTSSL
smiles,measurement,setting,value
"[11CH3]Oc1cc(F)cc(F)c1C1CCN(c2ccn3c(CC4CC4)nnc3c2Cl)CC1 [[^11C]B-7, 8-chloro-3-(cyclopropylmethyl)-7-[4-[2,4-difluoro-6-[^11C]methoxyphenyl]-1-piperidinyl]-1,2,4-triazolo[4,3-a]pyridine]",% ID Blood,[1]; 2 min p.i.,5.4 % ID and 5.4 ± 0.3 % ID
same,% ID Carcass,[1]; 2 min p.i.,40 % ID and 39.8 ± 2.8 % ID
same,% ID Cerebellum,[1]; 2 min p.i.,0.18 % ID and 0.179 ± 0.043 % ID
same,% ID Cerebrum total,[1]; 2 min p.i.,0.53 % ID and 0.529 ± 0.098 % ID
same,% ID Cortex,[1]; 2 min p.i.,0.081 ± 0.011 % ID
same,% ID Heart,[1]; 2 min p.i.,4.1 ± 0.4 % ID
same,% ID Hippocampus,[1]; 2 min p.i.,0.020 ± 0.004 % ID
same,% ID Intestines,[1]; 2 min p.i.,8.2 ± 1.1 % ID
same,% ID Kidneys,[1]; 2 min p.i.,6.5 ± 0.7 % ID
same,% ID Liver,[1]; 2 min p.i.,33.4 ± 2.0 % ID
same,% ID Lungs,[1]; 2 min p.i.,1.8 ± 0.7 % ID
same,% ID Rest of cerebrum,[1]; 2 min p.i.,0.428 ± 0.084 % ID
same,% ID Spleen + Pancreas,[1]; 2 min p.i.,1.3 ± 0.2 % ID
same,% ID Stomach,[1]; 2 min p.i.,1.5 ± 0.2 % ID
same,% ID Striatum,[1]; 2 min p.i.,0.028 ± 0.008 % ID
same,% ID Urine,[1]; 2 min p.i.,0.1 ± 0.0 % ID
same,Total brain uptake,[1]; 2 min p.i.,0.75 % ID and 0.75 ± 0.1 % ID
same,SUV Blood,[1]; 2 min p.i.,0.80 ± 0.00
same,SUV Cerebellum,[1]; 2 min p.i.,1.53 ± 0.03
same,SUV Cerebrum total,[1]; 2 min p.i.,1.08 ± 0.02
same,SUV Cortex,[1]; 2 min p.i.,1.14 ± 0.03
same,SUV Hippocampus,[1]; 2 min p.i.,0.85 ± 0.02
same,SUV Striatum,[1]; 2 min p.i.,1.13 ± 0.03
same,% ID Blood,[1]; 30 min p.i.,3.5 ± 0.2 % ID
same,% ID Carcass,[1]; 30 min p.i.,64.9 ± 4.2 % ID
same,% ID Cerebellum,[1]; 30 min p.i.,0.198 ± 0.026 % ID
same,% ID Cerebrum total,[1]; 30 min p.i.,0.718 ± 0.142 % ID
same,% ID Cortex,[1]; 30 min p.i.,0.120 ± 0.018 % ID
same,% ID Heart,[1]; 30 min p.i.,1.4 ± 0.2 % ID
same,% ID Hippocampus,[1]; 30 min p.i.,0.030 ± 0.003 % ID
same,% ID Intestines,[1]; 30 min p.i.,10.2 ± 1.5 % ID
same,% ID Kidneys,[1]; 30 min p.i.,2.8 ± 0.3 % ID
same,% ID Liver,[1]; 30 min p.i.,14.6 ± 1.2 % ID
same,% ID Lungs,[1]; 30 min p.i.,0.6 ± 0.1 % ID
same,% ID Rest of cerebrum,[1]; 30 min p.i.,0.523 ± 0.117 % ID
same,% ID Spleen + Pancreas,[1]; 30 min p.i.,1.2 ± 0.3 % ID
same,% ID Stomach,[1]; 30 min p.i.,1.4 ± 0.2 % ID
same,% ID Striatum,[1]; 30 min p.i.,0.045 ± 0.014 % ID
same,% ID Urine,[1]; 30 min p.i.,0.4 ± 0.1 % ID
same,Total brain uptake,[1]; 30 min p.i.,0.93 ± 0.2 % ID
same,SUV Blood,[1]; 30 min p.i.,0.50 ± 0.00
same,SUV Cerebellum,[1]; 30 min p.i.,2.0 and 2.00 ± 0.03
same,SUV Cerebrum total,[1]; 30 min p.i.,1.51 ± 0.03
same,SUV Cortex,[1]; 30 min p.i.,1.72 ± 0.05
same,SUV Hippocampus,[1]; 30 min p.i.,1.20 ± 0.01
same,SUV Striatum,[1]; 30 min p.i.,1.70 ± 0.03
same,% ID Blood,[1]; 60 min p.i.,3.7 % ID and 3.7 ± 0.4 % ID
same,% ID Carcass,[1]; 60 min p.i.,61.5 ± 5.7 % ID
same,% ID Cerebellum,[1]; 60 min p.i.,0.163 ± 0.011 % ID
same,% ID Cerebrum total,[1]; 60 min p.i.,0.543 ± 0.014 % ID
same,% ID Cortex,[1]; 60 min p.i.,0.059 ± 0.007 % ID
same,% ID Heart,[1]; 60 min p.i.,0.9 ± 0.1 % ID
same,% ID Hippocampus,[1]; 60 min p.i.,0.022 ± 0.003 % ID
same,% ID Intestines,[1]; 60 min p.i.,13.4 ± 3.3 % ID
same,% ID Kidneys,[1]; 60 min p.i.,2.0 ± 0.3 % ID
same,% ID Liver,[1]; 60 min p.i.,15.3 ± 2.1 % ID
same,% ID Lungs,[1]; 60 min p.i.,0.7 ± 0.1 % ID
same,% ID Rest of cerebrum,[1]; 60 min p.i.,0.435 ± 0.004 % ID
same,% ID Spleen + Pancreas,[1]; 60 min p.i.,0.9 ± 0.0 % ID
same,% ID Stomach,[1]; 60 min p.i.,2.4 ± 0.7 % ID
same,% ID Striatum,[1]; 60 min p.i.,0.026 ± 0.007 % ID
same,% ID Urine,[1]; 60 min p.i.,0.5 ± 0.2 % ID
same,% ID present in liver and intestines,[1]; 60 min p.i.,28.7 % ID
same,% ID present in the urinary system,[1]; 60 min p.i.,2.5 % ID
same,Total brain uptake,[1]; 60 min p.i.,0.72 ± 0.0 % ID
same,SUV Blood,[1]; 60 min p.i.,0.50 ± 0.01
same,SUV Cerebellum,[1]; 60 min p.i.,1.50 ± 0.01
same,SUV Cerebrum total,[1]; 60 min p.i.,1.19 ± 0.01
same,SUV Cortex,[1]; 60 min p.i.,1.10 ± 0.01
same,SUV Hippocampus,[1]; 60 min p.i.,0.98 ± 0.01
same,SUV Striatum,[1]; 60 min p.i.,1.43 ± 0.01
same,% reduction of SUV (total brain) due to chase,mGluR2; chase compound B 4 mg/kg i.v.,58%
same,SUV (total brain) before chase,"mGluR2; maximum SUV, chase compound B 4 mg/kg i.v. 30 min after tracer",1.2
same,SUV (total brain) after chase,"mGluR2; minimum SUV, chase compound B 4 mg/kg i.v. 30 min after tracer",0.5

# Source: patent publication US20130230459A1, “RADIOLABELLED mGluR2 PET LIGANDS” (Janssen Pharmaceuticals, Inc., priority 2010, published 2013)
